These results are taken from US20190307770A1, “METHODS FOR TREATING OR PREVENTING CANCER IN A KRAS-VARIANT PATIENT AND FOR […] OF […] PRIMARY BREAST TUMORS” (MIRADX, priority 2014, published 2019).

Experiment [1] relates to MCF10A KRAS-variant+/- (MT) cell lines. Description: Anchorage independent growth (soft agar colony formation) as measure of transformation. It counts as cell-based, human. The conditions noted are these: for level of transformation in anchorage independent growth assay: KRAS-variant (L1 and L2) versus parental (WT) MCF10A lines, comparison of anti-estrogen treatments and estrogen; for fold increased colony formation rate: KRAS-variant MCF10A lines, grown without EGF. On the procedure:
Anchorage independent growth was assessed as described previously (Sweasy et al. (2005) PNAS 102:14350-5). After thawing and growing cells until confluence in EGF supplemented media (20 ng/ml), cells were plated into conditions of study for two passages. For estrogen depletion experiments phenol red free DMEM/F12 medium (Invitrogen) and 5% charcoal-stripped horse serum (Thermo Fisher) were used, and Tamoxifen or estrogen was added to a final concentration of 1 μM after the first passage, as appropriate. To plate, 100 μl of MCF10A (WT) or (MT) cells at a density of 400,000 cells/ml were mixed with 2 ml of media for the condition under study containing 2 ml 0.7% noble agar (USB). 1 ml of the cell mixture was added to 1 ml of 1.0% noble agar in a well of a 6-well dish. Cells were fed twice weekly by layering on a 50:50 mixture of media with 0.7% agar for 2 weeks, followed by only media for two-three additional weeks. The number of colonies present in each of ten microscope fields per well from a total of 3 wells per experiment was counted to evaluate transformation and is reported as an average of the 2 separate MT lines.
Next, WT and MT lines were plated in soft agar to test for transformation, as measured by anchorage independent growth. […] The impact of estrogen withdrawal on this transformation was next evaluated by the use of charcoal stripped serum, tamoxifen, or a combination of the two. […] These findings biologically confirm wide spread transformation in normal breast epithelium with acute estrogen withdrawal in breast cells with the KRAS-variant.
Next, different forms of estrogen inhibitors were tested to determine their effects on transformation in the presence of the KRAS-variant. Tamoxifen (ER antagonist in breast), anastrozole (aromatase inhibitor, inhibiting estrogen synthesis), and fulvestrant (a complete ER antagonist) were administered to parental (WT) or two KRAS-variant (L1 and L2) MCF10A cell lines and anchorage independent growth was assessed using the colony formation assay described above.

The conditions of experiment [2]: post-menopausal use of estrogen alone, median follow up 11.8 years; CI 0.62-0.95, p 0.02; cited from earlier work.

Turning to `CC/C(=C(\c1ccccc1)c1ccc(OCCN(C)C)cc1)c1ccccc1` [Tamoxifen], the “colonies formed relative to the anastrozole or fulvestrant treatments” value in experiment [1] (KRAS-variant (L1 and L2) MCF10A lines, FIG. 5) is given as ~10 times. Moreover, the “level of transformation in anchorage independent growth assay” value in experiment [1] (FIG. 5) was “highest level of transformation”. In addition, the “fold increased colony formation rate” value in experiment [1] (Tamoxifen combined with charcoal stripped media) came out at 7.9 fold; in experiment [1] (in the presence of Tamoxifen (1 μM final)) it was 2 fold.
Regarding estrogen, in experiment [2], the “breast cancer incidence versus placebo, HR” value is on record as 0.77. For the same molecule, the “level of transformation in anchorage independent growth assay” value is “prevented transformation” in experiment [1] (FIG. 5) and “prevents transformation” in experiment [1] (FIG. 5, listed as Estrogen). Besides, in experiment [1] (KRAS-variant MT cell lines, charcoal-stripped media, estrogen 1 μM, p=0.018, FIG. 4), the “transformation (colony formation) after return of estrogen to charcoal-stripped media” value was “decreased transformation”.
